The nature of data set [1]: Animal study of alpha-tocotrienol quinone administration: pharmacokinetics in rats. Conditions: rat, in vivo, 10 mg/kg. The method, then: (§1) The particular dosage appropriate for a specific patient is determined by dose titration. […] There is less than dose-proportionality since for an increase in doses of 2.4:6:10:20 there is only an increase in AUCs of 1.5:2.8:4.0:6.7. This lack of dose-proportionality may be due to decreased absorption since there is no change in t1/2 over dose range. Alpha-tocotrienol quinone tested in rats was safe when given acutely up to 2000 mg/kg.

The nature of a further data set: in vivo. To be noted: rat; for NOAEL: female. The method, then:
as §1
The starting dose can be estimated based on the United States Food and Drug Administration guidelines titled “Estimating the Maximum Safe Starting Dose in Initial Clinical Trials for Therapeutics in Adult Healthy Volunteers” (July 2005) as well as the International Conference on Harmonisation of Technical Requirements for Registration of Pharmaceuticals for Human Use (ICH) guidelines titled “Guidance on Non-clinical Safety Studies for the Conduct of Human Clinical Trials and Marketing Authorization for Pharmaceuticals” (July 2008). Per ICH guidelines, predicted exposures from the starting dose should not exceed 1/50th the NOAEL (No-Adverse-Observed-Effect-Level) in the more sensitive species on a mg/m^2 basis. Following a single oral dose of alpha-tocotrienol quinone, the NOAEL was established to be 500 mg/kg for the female rat, i.e. 3,000 mg/m2. This dosage would be equivalent to 81 mg/kg in an adult human. 1/50th of 81 mg/kg is 1.6 mg/kg, i.e. 110 mg for a 70 kg adult, or 16 mg for a 10 kg child. This dose can be administered once, twice, or three times daily.

Data set [2] has as its system Ataxia-Telangiectasia fibroblast cells AG04405 (AT05). Description: Ataxia-Telangiectasia cell line assay: rescue of BSO-stressed A-T fibroblasts, Calcein AM viability. It is filed as cell-based. Conditions: A-T fibroblasts AT05 stressed with 1 mM BSO for 48 h, Calcein AM fluorescence, tested three times, read-out: ED50, protection of ataxia telangiectasia cells. The protocol:
Alpha-Tocotrienol quinone, was tested for its ability to rescue Ataxia-Telangiectasia fibroblast cells obtained from the Coriell Cell Repositories (Camden, N.J.; repository number AG04405 (AT05), when the cells were stressed by addition of L-buthionine-(S,R)-sulfoximine (BSO), as described in Jauslin et al., Hum. Mol. Genet. 11(24):3055 (2002), Jauslin et al., FASEB J. 17:1972-4 (2003), and International Patent Application WO 2004/003565.
MEM (a medium enriched in amino acids and vitamins, catalog no. 1-31F24-I) and Medium 199 (M199, catalog no. 1-21F22-I) with Earle's Balanced Salts, without phenol red, were purchased from Bioconcept. Fetal Calf Serum was obtained from PAA Laboratories. Basic fibroblast growth factor and epidermal growth factor were purchased from PeproTech. Penicillin-streptomycin-glutamine mix, L-buthionine (S,R)-sulfoximine, and insulin from bovine pancreas were purchased from Sigma. Calcein AM was purchased from Molecular Probes. […]
100 μL of PBS containing 1.2 μM Calcein AM were then added to each well. […] After that time the PBS was discarded, the plate gently tapped on a paper towel and fluorescence (excitation/emission wavelengths of 485 nm and 525 nm, respectively) was read on a Gemini fluorescence reader. […]

Data set [3] can be described thus: Animal study of alpha-tocotrienol quinone administration: pharmacokinetics in fasted dogs. Conditions: dog, in vivo, po, 10 mg/kg. The method, then:
as §1

As usually defined, the Cmax is the maximum level reached in the sampled fluid or tissue. For orientation: Tmax means the time from dosing to the highest level. Broadly, the bioavailability is the share of a dose that reaches the circulation, judged against a reference dose that is usually intravenous. Read a high bioavailability as good availability. By half-life is commonly meant the time needed for the level to fall by half in the phase considered. A low value points to rapid decline. For orientation: NOAEL means the highest tested level that showed no adverse finding.

`CC(C)=CCC/C(C)=C/CC/C(C)=C/CCC(C)(O)CCC1=C(C)C(=O)C(C)=C(C)C1=O` (stereo not drawn) [Alpha-tocotrienol quinone]: in data set [1], the peak level (Cmax) was 931 ng/mL, the Tmax is 3.5 h, the bioavailability was around 90% and the half-life is 3.5 h. Besides, in the data set “in vivo”, the NOAEL came out at 81 mg/kg and the “dose at which safe when given acutely” value is given as “up to 2000 mg/kg”. Moreover, in “in vivo” (po), the NOAEL amounted to 500 mg/kg and the “NOAEL on body surface basis” value is listed as 3,000 mg/m2. Besides, the EC50 in data set [2] was 28 nM. Also, in data set [3], the maximum concentration (Cmax) is 442 ng/mL, the Tmax was 2.8 h, the bioavailability is around 16% and the half-life is 7.6 h.

Values taken from patent publication US20130116336A1, “TREATMENT OF ATAXIA TELANGIECTASIA” (priority 2010, published 2013).
